Test results: patent US20250136722A1, “CYTOTOXICITY TARGETING CHIMERAS” (GLAXOSMITHKLINE INTELLECTUAL PROPERTY DEVELOPMENT LIMITED, priority 2021, published 2025)
Values joined by “and” are separate entries in the source; they are usually repeats but may differ in a detail not shown here. Identical values can stand only once.

Key:
[1] = molecular target: Anti-cotinine antibody (SEQ ID NO: 11 / SEQ ID NO: 12, rabbit variable region with human IgG1 Fc domain); assay: Binding of anti-cotinine antibody to ARM compounds by SPR, Biacore T200, 37° C. (Example 202); conditions: pH 7.4, rabbit variable region/human IgG1 Fc antibody captured on protein A
Outline: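 Antibody captured on protein A chip. Compounds injected (3-fold, 5-point, top 200 nM) at 100 μL/min with 200 s association and 2000 s dissociation, at 37° C. in HEPES pH 7.4 buffer with 1% DMSO. Double-referenced data fit to 1:1 kinetics. Kd = koff/kon, reported as pKd, averaged over runs.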

[2] = molecular target: T1, CHOK1 cells engineered to overexpress human CCR2 (Homo sapiens, UniProt P41597); assay: Antibody dependent cellular cytotoxicity (ADCC) reporter assay (Example 199); format: cell-based; conditions: with anti-cotinine antibody SEQ ID NO: 11/12, CHOK1-human CCR2 target cells, Jurkat FcγRIIIa NFAT-luciferase reporter cells, 12-18 hours; for EC50: read-out: ADCC Reporter Assay pEC50 (converted)
T1 construct: expressed in transfected cells; host or cells: CHOK1 cells
Outline: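 CHOK1-hCCR2 target cells are co-incubated for 12–18 h with Jurkat FcγRIIIa/NFAT-luciferase reporter cells, ARM compound (1 pM–10 μM) and anti-cotinine antibody with a DE-mutant human IgG1 Fc (0.01–200 μg/mL). Luminescence is expressed as signal:background against no-compound wells; EC50 comes from nonlinear fit and is reported as pEC50, averaged across runs.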

[3] = molecular target: human alpha1 nicotinic acetylcholine (nACh) receptor (Homo sapiens, UniProt P02708+Q07001); assay: Nicotinic acetylcholine receptor antagonism assay, IONFlux automated patch clamp (Example 203); format: cell-based; conditions: for IC50: nAChR antagonism, ACh stimulated, patch clamp; for Emax at 100 µM: maximum percentage antagonism at maximum concentration tested 100 μM; for Emax at 10 µM: maximum percentage antagonism at maximum concentration tested 10 μM
human alpha1 nicotinic acetylcholine (nACh) receptor, sequence (P02708 21-457): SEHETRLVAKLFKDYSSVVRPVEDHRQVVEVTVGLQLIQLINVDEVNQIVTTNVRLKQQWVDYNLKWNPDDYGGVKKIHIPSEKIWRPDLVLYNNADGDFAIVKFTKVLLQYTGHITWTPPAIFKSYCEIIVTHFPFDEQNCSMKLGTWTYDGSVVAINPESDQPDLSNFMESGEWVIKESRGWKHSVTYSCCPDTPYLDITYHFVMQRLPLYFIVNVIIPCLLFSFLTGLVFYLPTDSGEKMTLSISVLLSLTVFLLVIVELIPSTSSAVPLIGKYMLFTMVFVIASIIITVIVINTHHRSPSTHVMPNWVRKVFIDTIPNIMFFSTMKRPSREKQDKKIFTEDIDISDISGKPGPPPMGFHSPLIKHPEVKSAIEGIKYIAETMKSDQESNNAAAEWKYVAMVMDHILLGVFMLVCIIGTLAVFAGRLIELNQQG
human alpha1 nicotinic acetylcholine (nACh) receptor, sequence (P11230 24-501 partner): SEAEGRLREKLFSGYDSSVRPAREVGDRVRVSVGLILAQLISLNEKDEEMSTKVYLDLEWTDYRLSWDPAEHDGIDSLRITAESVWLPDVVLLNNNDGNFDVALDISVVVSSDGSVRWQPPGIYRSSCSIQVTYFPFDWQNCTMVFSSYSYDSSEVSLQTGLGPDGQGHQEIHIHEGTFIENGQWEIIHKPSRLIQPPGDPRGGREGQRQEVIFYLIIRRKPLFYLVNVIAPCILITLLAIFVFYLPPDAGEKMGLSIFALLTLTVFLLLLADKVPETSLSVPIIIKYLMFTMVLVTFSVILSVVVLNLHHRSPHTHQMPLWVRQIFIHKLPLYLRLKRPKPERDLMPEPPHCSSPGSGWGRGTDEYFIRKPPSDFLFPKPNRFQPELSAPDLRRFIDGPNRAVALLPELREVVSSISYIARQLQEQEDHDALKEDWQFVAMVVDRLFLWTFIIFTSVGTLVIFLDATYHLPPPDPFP
human alpha1 nicotinic acetylcholine (nACh) receptor, sequence (Q07001 22-517): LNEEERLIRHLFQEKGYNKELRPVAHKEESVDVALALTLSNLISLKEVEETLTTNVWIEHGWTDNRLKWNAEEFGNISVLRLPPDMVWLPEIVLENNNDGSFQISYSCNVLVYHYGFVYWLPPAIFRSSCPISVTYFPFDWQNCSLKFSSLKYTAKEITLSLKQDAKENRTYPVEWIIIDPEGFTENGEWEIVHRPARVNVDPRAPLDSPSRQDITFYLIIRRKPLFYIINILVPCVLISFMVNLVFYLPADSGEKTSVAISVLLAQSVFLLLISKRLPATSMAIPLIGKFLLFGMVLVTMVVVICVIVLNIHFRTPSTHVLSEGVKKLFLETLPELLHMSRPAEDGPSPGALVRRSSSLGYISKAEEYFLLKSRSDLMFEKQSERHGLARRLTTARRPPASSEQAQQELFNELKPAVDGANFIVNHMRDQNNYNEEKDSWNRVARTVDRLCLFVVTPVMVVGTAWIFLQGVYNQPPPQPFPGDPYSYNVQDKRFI
Method: Cells expressing human alpha1 nicotinic acetylcholine (nACh) receptor (nAChR) were washed and dissociated using Trypsin containing buffer. Cells were then washed and seeded at a density of 3-5 million cells/mL and allowed to grow for 3 days. Then, 60-80 μL of cells were added to plates and incubated with dose response of an ARM compound of Formula (I) with a top concentration of either 10 μM or 100 μM. The receptor was then stimulated via addition of acetylcholine (ACh) and activation of the receptor was monitored via the IONFlux automated patch clamp system. IonFlux Data Analyzer software was utilized to perform leak subtraction and measure (min) peak current amplitude.
Data processing: (1) Current values recorded for vehicle only applications in individual traps/patterns were subtracted from corresponding current amplitude values for control, test article and control+test article. (2) Control response was calculated as % of the average response of the 3rd out of total 3 ACh (10 mM) applications alone. In rare situations, if the 3rd ACh response was obscured due to technical artifacts, the 2nd and/or 1 st ACh (10 mM) application was considered as control. The peak current amplitude generated in the presence of each test article concentration was then used to calculate the % inhibition as compared to control response (10 mM ACh alone). These estimates were further corrected for vehicle response and run down corrected by normalizing with time matched control responses (10 mM ACh alone). The corrected percentages were then fit with a non-linear function in GraphPad Prism 6 (or later versions) to determine the […].
Exclusion criteria: (i) any n's with poor recording quality, (ii) control current amplitude <500 pA or (iii) significant outliers, as determined by the Grubbs' test.
ARMs compounds of Formula (I) of the invention were tested for antagonism of the nAChR in the above assay in […] experimental runs and the results are shown in Table 7 below. Antagonistic activity of the compounds of Formula (I) of the invention is reported as an IC50 value (half maximal inhibitory concentration) and the maximum percentage antagonism observed at the highest concentration of compound of Formula (I) tested, as indicated in Table 7. For compounds tested in more than one experimental run, the IC50 value is reported as an average.

| Structure (SMILES) | pKd of Antibody for ARM Compound of Formula (I) [1] | EC50 [2] | Emax at 33.33 µM ([3]; maximum percentage antagonism at maximum concentration tested 33.33 μM, read-out: Maximum Response (%)) | IC50 [3] | Emax at 100 µM ([3]; read-out: Maximum Response (%)) | ADCC Reporter Assay pEC50 [2] | Emax at 10 µM ([3]; read-out: Maximum Response (%)) |
| --- | --- | --- | --- | --- | --- | --- | --- |
| CC(C)N(C)[C@@H]1CC[C@H](N2CC[C@H](Nc3ncnc4ccc(C(F)(F)F)cc34)C2=O)[C@H](NC(=O)[C@H]2CC[C@@H](NC(=O)CCCO[C@H]3CC[C@H](NC(=O)CCNC(=O)[C@@H]4CC(=O)N(C)[C@H]4c4cccnc4)CC3)CC2)C1 [Example 52, (2S,3S)-N-(3-(((1R,4S)-4-(4-(((1S,4S)-4-(((1R,2S,5R)-5-(Isopropyl(methyl)amino)-2-((S)-2-oxo-3-((6-(trifluoromethyl)quinazolin-4-yl)amino)pyrrolidin-1-yl)cyclohexyl)carbamoyl)cyclohexyl)amino)-4-oxobutoxy)cyclohexyl)amino)-3-oxopropyl)-1-methyl-5-oxo-2-(pyridin-3-yl)pyrrolidine-3-carboxamide] | 9.2545 | 0.222 nM and 0.294 nM | 8.3% | > 33300 nM |  |  |  |
| CC(C)N(C)[C@@H]1CC[C@H](N2CC[C@H](Nc3ncnc4ccc(C(F)(F)F)cc34)C2=O)[C@H](NC(=O)CCNC(=O)CCCOC[C@H]2CC[C@@H](COCCNC(=O)[C@H]3CC(=O)N(C)[C@@H]3c3cccnc3)CC2)C1 [Example 62] | 9.6305 | 0.867 nM |  | 29000 nM | 67.9% |  |  |
| CC(C)N(C)[C@@H]1CC[C@H](N2CC[C@H](Nc3ncnc4ccc(C(F)(F)F)cc34)C2=O)[C@H](NC(=O)[C@H]2CC[C@@H](NC(=O)CCOCCNC(=O)CCNC(=O)CCNC(=O)[C@H]3CC(=O)N(C)[C@@H]3c3cccnc3)CC2)C1 [Example 182, (2S,3S)-N-(3-((3-((2-(3-(((1S,4s)-4-(((1R,2S,5R)-5-(Isopropyl(methyl)amino)-2-((S)-2-oxo-3-((6-(trifluoromethyl)quinazolin-4-yl)amino)pyrrolidin-1-yl)cyclohexyl)carbamoyl)cyclohexyl)amino)-3-oxopropoxy)ethyl)amino)-3-oxopropyl)amino)-3-oxopropyl)-1-methyl-5-oxo-2-(pyridin-3-yl)pyrrolidine-3-carboxamide] | 9.117 | 0.514 nM and 0.191 nM |  | 76400 nM | 61.9% |  |  |
| CC(C)N(C)[C@@H]1CC[C@H](N2CC[C@H](Nc3ncnc4ccc(C(F)(F)F)cc34)C2=O)[C@H](NC(=O)C2CCC(NC(=O)CCOCCNC(=O)CCOCCNC(=O)[C@H]3CC(=O)N(C)[C@@H]3c3cccnc3)CC2)C1 (stereo partly drawn) [Example 48] | 8.975 |  |  | 31800 nM | 77% | 9.159 and 9.168 |  |
| CC(C)N(C)[C@@H]1CC[C@H](N2CC[C@H](Nc3ncnc4ccc(C(F)(F)F)cc34)C2=O)[C@H](NC(=O)CCOCCNC(=O)COCCNC(=O)COCCNC(=O)[C@H]2CC(=O)N(C)[C@@H]2c2cccnc2)C1 [Example 102, (2S,3S)-N-(18-(((1R,2S,5R)-5-(Isopropyl(methyl)amino)-2-((S)-2-oxo-3-((6-(trifluoromethyl)quinazolin-4-yl)amino)pyrrolidin-1-yl)cyclohexyl)amino)-5,11,18-trioxo-3,9,15-trioxa-6,12-diazaoctadecyl)-1-methyl-5-oxo-2-(pyridin-3-yl)pyrrolidine-3-carboxamide] | 9.076 | 1.26 nM |  | 66100 nM | 61.3% |  |  |
| CC(C)N(C)[C@@H]1CC[C@H](N2CC[C@H](Nc3ncnc4ccc(C(F)(F)F)cc34)C2=O)[C@H](NC(=O)CCCN2CCC3(CCN(CCCNC(=O)[C@H]4CC(=O)N(C)[C@@H]4c4cccnc4)CC3)CC2)C1 [Example 191, (2S,3S)-N-(3-(9-(4-(((1R,2S,5R)-5-(Isopropyl(methyl)amino)-2-((S)-2-oxo-3-((6-(trifluoromethyl)quinazolin-4-yl)amino)pyrrolidin-1-yl)cyclohexyl)amino)-4-oxobutyl)-3,9-diazaspiro[5.5]undecan-3-yl)propyl)-1-methyl-5-oxo-2-(pyridin-3-yl)pyrrolidine-3-carboxamide] | 9.68 | 0.424 nM |  | 2950 nM |  |  | 74% |
| CC(C)N(C)[C@@H]1CC[C@H](N2CC[C@H](Nc3ncnc4ccc(C(F)(F)F)cc34)C2=O)[C@H](NC(=O)COCCOCCNC(=O)CCOCCOCCNC(=O)[C@H]2CC(=O)N(C)[C@@H]2c2cccnc2)C1 [Example 77] | 9.152 | 5.52 nM |  | > 10000 nM |  |  | 19.6% |
| CC(C)N(C)[C@@H]1CC[C@H](N2CC[C@H](Nc3ncnc4ccc(C(F)(F)F)cc34)C2=O)[C@H](NC(=O)CCOCCOCCNC(=O)CCOCCOCCNC(=O)[C@H]2CC(=O)N(C)[C@@H]2c2cccnc2)C1 [Example 76] | 9.1155 | 2.51 nM |  | 32400 nM | 67.7% |  |  |
| CC(C)N(C)[C@@H]1CC[C@H](N2CC[C@H](Nc3ncnc4ccc(C(F)(F)F)cc34)C2=O)[C@H](NC(=O)[C@H]2CC[C@@H](NC(=O)CCCC(=O)NCCCOCCCNC(=O)[C@H]3CC(=O)N(C)[C@@H]3c3cccnc3)CC2)C1 [Example 18, N^1-((1S,4s)-4-(((1R,2S,5R)-5-(Isopropyl(methyl)amino)-2-((S)-2-oxo-3-((6-(trifluoromethyl)quinazolin-4-yl)amino)pyrrolidin-1-yl)cyclohexyl)carbamoyl)cyclohexyl)-N^5-(3-(3-((2S,3S)-1-methyl-5-oxo-2-(pyridin-3-yl)pyrrolidine-3-carboxamido)propoxy)propyl)glutaramide] | 9.0895 | 0.675 nM and 0.132 nM |  | > 100000 nM | 44.9% |  |  |
| CC(C)N(C)[C@@H]1CC[C@H](N2CC[C@H](Nc3ncnc4ccc(C(F)(F)F)cc34)C2=O)[C@H](NC(=O)[C@H]2CC[C@@H](NC(=O)CCOCCOCCNC(=O)CCNC(=O)[C@H]3CC(=O)N(C)[C@@H]3c3cccnc3)CC2)C1 [Example 16, (2S,3S)-N-(3-((2-(2-(3-(((1S,4s)-4-(((1R,2S,5R)-5-(Isopropyl(methyl)amino)-2-((S)-2-oxo-3-((6-(trifluoromethyl)quinazolin-4-yl)amino)pyrrolidin-1-yl)cyclohexyl)carbamoyl)cyclohexyl)amino)-3-oxopropoxy)ethoxy)ethyl)amino)-3-oxopropyl)-1-methyl-5-oxo-2-(pyridin-3-yl)pyrrolidine-3-carboxamide] | 9.287 | 0.925 nM and 0.119 nM |  | > 100000 nM | 47.8% |  |  |
| CC(C)N(C)[C@@H]1CC[C@H](N2CC[C@H](Nc3ncnc4ccc(C(F)(F)F)cc34)C2=O)[C@H](NC(=O)[C@H]2CC[C@@H](NC(=O)COCCNC(=O)COCCNC(=O)[C@H]3CC(=O)N(C)[C@@H]3c3cccnc3)CC2)C1 [Example 99] | 9.062 | 1.99 nM |  | 33100 nM | 71.1% |  |  |
| CC(C)N(C)[C@@H]1CC[C@H](N2CC[C@H](Nc3ncnc4ccc(C(F)(F)F)cc34)C2=O)[C@H](NC(=O)CCOCCC(=O)N[C@H]2C[C@H](C(=O)NCCOCCNC(=O)[C@H]3CC(=O)N(C)[C@@H]3c3cccnc3)C2)C1 [Example 187] | 9.104 | 0.324 nM |  | 71100 nM | 63.7% |  |  |
